Source: patent US20090186835A1, “TREATMENT AND PROPHYLAXIS OF CANCER” (priority 2008, published 2009)
Where two headings read alike, the source gives them in different places.

Experiments:
[1] = tested on: human pancreatic carcinoma cells (HPAC); assay: CytoTox 96 LDH release cytotoxicity assay on HPAC cells
Description: (§1) The pancreatic cancer cell line, human pancreatic carcinoma cells (HPAC), was obtained from American Tissue and Cell Culture and cultured in complete media according to American Tissue and Cell Culture guidelines in T-75-cm^2 flasks in a 37° C. incubator with 5% CO2. HPAC cells were grown in Dulbecco's modified Eagle's medium with Ham F-12, 5% fetal bovine serum, 5% penicillin/streptomycin, 0.002 mg/mL insulin, 0.005 mg/mL transferrin, 40 ng/mL hydrocortisone, and 10 ng/mL epidermal growth factor.
(§2) 1×10^4 HPAC cells were aliquoted into each well of a 96-well plate and served as target cells. They were plated in phenol red dye-free RPMI 1640 (HyClone, Logan, Utah) complete medium (1 mM L-glutamine, 100 U/mL penicillin, 100 μg/mL streptomycin, 5% heat-inactivated fetal bovine serum; Gibco-BRL, Grand Island, N.Y.) and incubated with either natural mixture or sophorolipid derivative in increasing concentrations (0, 50, 100, 150, 200 mg; 100 μL final volume) at 37° C. with 5% CO2 overnight.
(§3) Assays were carried out using a CytoTox 96 Non-Radioactive Cytotoxicity Assay (Promega, Woodshole, Mass.), in accordance with manufacturer's directions. This assay measures lactate dehydrogenase (LDH) release by target cells, after conversion of a tetrazolium salt into a formazan red product. Cytotoxicity as measured by LDH release is considered an effective measure of determining cellular necrosis. Sophorolipid mixtures or derivatives (0, 50, 100, 150, 200 mg) were added to 96-well tissue culture plates (Fisher Scientific, Springfield, N.J.) containing HPAC cells (100 μL final volume) and incubated at 37° C., 5% CO2, for 20 h. To establish maximum lysis, lysing solution (9% v/v Triton-X 100; 10 μL) was added to representative culture wells containing HPAC cells. After incubation, supernatant (50 μL) was transferred to a fresh 96-well plate. Chromogenic substrate solution (50 μL) was added to each well while the plates were incubated in the dark at RT for 30 min, after which stop solution (1M NaAc; 50 μL) was added to each well to stop the reaction.
(§4) Cytotoxicity as measured by LDH release was determined by spectrophotometry at 450 nm (Bio-Tek Instruments Inc., Winooski, Vt.). […] Data shown represent the mean of at least three experiments±SE and are expressed as percentage cytotoxicity. Background controls were corrected for and consisted of target cell spontaneous (HPACs in media) and target cell maximum (HPACs in media with 10 μL lysis solution). Target cell maximum was corrected for by a volume control (media with 10 μL lysis solution). Each experiment was corrected for by a sophorolipid control (sophorolipid in media). These controls were incubated on the same 96-well plate as experimental assays. Percent (%) cytotoxicity was calculated according to the general equation below:
(§5) Values for results were expressed as means±SE obtained from multiple determinations in three or more separate experiments. P values computed were two-tailed, and P<0.05 was considered statistically significant (Student's t-test, analysis of variance with Tukey post-hoc correction; SPSS version 10.0, Chicago, Ill.).

[2] = tested on: Human pancreatic carcinoma (HPAC) cells; assay: Apoptosis (annexin) in HPAC cells; type: cell-based; conditions: 0.5-2.0 mg/ml, 24 hours
Description: The sophorolipid mixtures of the present invention have anti cancer properties, which were confirmed by experiment and observations. […] Controls consisted of cells treated with media or vehicle alone and sophorolipids treatment of peripheral blood mononuclear cells (PBMC). AS mediated toxicity was inversely proportional with dose (LSD—40.3% at 0.5 mg/ml, 3.4% at 2.0 mg/ml, AS 49% at 0.5 mg/ml, 0% at 2.0 mg/ml).

[3] = tested on: human pancreatic carcinoma cells (HPAC)
Description: as §1, §2, §3, §4, §5

Row | Compound | percent cytotoxicity (LDH release) ([1]; HPAC cells cultured with 100 μg of sophorolipid natural mixture or derivative, FIG. 2) [%] | percent cytotoxicity (LDH release) ([1]; HPAC cells, 0.5 mg/mL) [%] | percent cytotoxicity (LDH release) ([1]; HPAC cells, 2.0 mg/mL) [%] | dose dependence of the cytotoxic response ([1]; HPAC cells, 0.5-2.0 mg/ml, in words) | apoptosis (annexin) [2] | dose dependence of the cytotoxic response [3]
1 | CC(=O)OC[C@H]1O[C@H]2OC(C)CCCCCC/C=C\CCCCCCCC(=O)O[C@H]3[C@H](O)[C@@H](O)[C@H](O[C@@H]2[C@@H](O)[C@@H]1O)O[C@@H]3COC(C)=O (stereo partly drawn) [LSD, lactonic sophorolipid diacetate] | 26.2 | 40.3 | 3.4 | inversely proportional to dose |  | 
2 | acidic sophorolipid [AS] |  |  |  |  | Dose dependant apoptosis could be observed | inversely proportional to dose
